Structures are written as SMILES. Entries after “also recorded” stand apart in the source; their conditions may differ.

One experiment has as its system ACTH and cortisol levels. The settings on record: Cushing's syndrome patients; cited from earlier work.
For a further experiment, the target named is glucocorticoid receptor (Homo sapiens, UniProt P04150). The settings on record: HepG2 cells; cited from earlier work.
In experiment [1] the test system is cortisol-secreting adrenal adenoma. Kind of experiment: CT imaging of adrenal gland tumor size in GRADIENT study patients. In kind it is in vivo, human. The source says:
(§1) The following protocol describes the GRADIENT clinical trial, an on-going, randomized, double-blind, placebo-controlled Phase 3 study which focuses on patients with hypercortisolism secondary to adrenal adenoma(s) or hyperplasia (ClinicalTrials.gov Identifier: NCT04308590). This study includes patients with cortisol-secreting adrenal adenomas or hyperplasia associated with DM/IGT (diabetes […] (DM) and/or impaired glucose tolerance (IGT)) and/or uncontrolled systolic hypertension. The study enrolled patients with hypercortisolism due to cortisol secreting adrenal adenomas or hyperplasia. These patients may or may not present the classic clinical manifestations of overt Cushing syndrome (i.e., facial appearance, buffalo hump, striae, etc.). Patients were identified as suffering from cortisol-secreting adrenal gland tumors based on abnormal dexamethasone suppression test (DST) and low ACTH. Patients could receive medications that were commonly used to treat diabetes, hypertension, or dyslipidemia if required. Following screening, those patients meeting study criteria were randomly assigned to receive doses of either placebo or relacorilant for 22 weeks of treatment. Patient follow-up was within 28 days of the last dose. Total patient participation in the study was up to 32 weeks. The GRADIENT study design is illustrated in FIG. 1. Patients discussed herein were participants in the GRADIENT study. […] The starting dose at Baseline was 100 mg relacorilant or matching placebo once daily for 2 weeks, after which the dose was increased to 200 mg. As tolerated, the dose was then increased by 100 mg to 300 mg once daily after 4 weeks, and, as tolerated, the dose was then increased to 400 mg once daily after another 4 weeks. If a dose was not tolerated, dose interruption, dose reduction, and dose re-escalation were allowed. Patients were maintained at a once-daily dose of 400 mg, or at their highest tolerated dose. Dose titrations after 18 weeks were not permitted. Patients who completed the study were permitted to continue relacorilant treatment in an extension study if they have at least 80% adherence with scheduled dosing (by capsule counts), and are expected to maintain clinical benefit from the study drug. Although not expected to regress, adrenal tumors progress very slowly, and rarely progress into overt Cushing syndrome ([…] et al. 2016 Eur J Endocrinol. 175 (2):G1-[…]. doi: 10.1530/EJE-16-0467). Patients receiving placebo continued to receive their previously prescribed medications; thus, although the placebo was not expected to provide additional benefit to those patients receiving placebo, neither was any detriment expected. Relacorilant was supplied as 100 mg capsules for oral dosing. […]

For experiment [2], the system named is plasma ACTH, cortisol levels. Kind of experiment: Plasma ACTH, cortisol and DST in a GRADIENT study patient. In kind it is in vivo, human. Conditions: FIG. 2 patient.
From the text: as §1, with “expected.” for “expected. Relacorilant was supplied as 100 mg capsules for oral dosing.”

The next experiment concerns pituitary macroadenomas. The settings on record: following administration of relacorilant; cited from earlier work.

Chain of glucocorticoid receptor (P04150 whole entry): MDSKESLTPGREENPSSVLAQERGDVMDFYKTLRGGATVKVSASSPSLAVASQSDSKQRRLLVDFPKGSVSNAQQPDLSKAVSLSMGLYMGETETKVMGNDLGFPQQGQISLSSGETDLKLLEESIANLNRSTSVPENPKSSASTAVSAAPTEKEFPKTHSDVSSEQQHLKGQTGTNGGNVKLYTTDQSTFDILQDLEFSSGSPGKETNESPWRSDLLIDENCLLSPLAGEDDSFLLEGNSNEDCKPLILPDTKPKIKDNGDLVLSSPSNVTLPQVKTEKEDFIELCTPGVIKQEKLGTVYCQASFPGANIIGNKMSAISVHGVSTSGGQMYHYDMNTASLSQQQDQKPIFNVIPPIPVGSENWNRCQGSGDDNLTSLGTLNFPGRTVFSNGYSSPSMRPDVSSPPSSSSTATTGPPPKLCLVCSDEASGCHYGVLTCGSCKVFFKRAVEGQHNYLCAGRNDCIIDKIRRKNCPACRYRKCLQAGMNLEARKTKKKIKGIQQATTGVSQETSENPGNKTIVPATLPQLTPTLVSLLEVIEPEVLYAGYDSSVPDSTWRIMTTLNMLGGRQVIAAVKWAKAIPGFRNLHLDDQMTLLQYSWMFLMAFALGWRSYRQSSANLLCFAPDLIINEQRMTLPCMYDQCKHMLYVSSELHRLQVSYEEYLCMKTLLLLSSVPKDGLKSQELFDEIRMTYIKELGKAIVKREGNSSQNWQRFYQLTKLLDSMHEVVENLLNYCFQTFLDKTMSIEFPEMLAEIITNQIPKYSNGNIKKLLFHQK

On to `CC#C[C@]1(O)CC[C@H]2[C@@H]3CCC4=CC(=O)CCC4=C3[C@@H](c3ccc(N(C)C)cc3)C[C@@]21C` [mifepristone], for which, in the experiment with ACTH and cortisol levels, the “ACTH levels (in words)” value is listed as “increased” and the “cortisol levels (in words)” value was “increased”. Besides, the “activity of tyrosine aminotransferase (TAT) (in words)” value at glucocorticoid receptor is on record as “decreases”.
Regarding `Cn1cc(S(=O)(=O)N2CCC3=Cc4c(cnn4-c4ccc(F)cc4)C[C@]3(C(=O)c3cc(C(F)(F)F)ccn3)C2)cn1` [relacorilant, (R)-(1-(4-fluorophenyl)-6-((1-methyl-1H-pyrazol-4-yl)sulfonyl)-4,4a,5,6,7,8-hexahydro-1H-pyrazolo[3,4-g]isoquinolin-4a-yl)(4-(trifluoromethyl)pyridine-2-yl)methanone], the “size of adrenal adenoma (CT)” value in experiment [1] (FIG. 2 patient, benign cortisol-secreting adenoma, daily relacorilant 100 up to 400 mg/day for almost two years, initial size 4.2 cm) was 3.1 cm. In addition, the “degenerative changes inside the adenoma (CT)” value in experiment [1] (FIG. 2 patient, after almost two years of daily relacorilant, not present in initial scan) was “exhibits areas of degeneration; also recorded: developed fat droplets”. Moreover, in experiment [1] (FIG. 3 patient, at least 3 months daily relacorilant 100 up to 400 mg/day, 34.09 mm / 34.08 mm before treatment), the “maximum tumor dimension (CT measurement line)” value is recorded as 30.99 mm. Besides, the “change in adrenal gland tumor size following treatment (in words)” value in experiment [1] (individual patients, daily relacorilant up to 400 mg/day) is recorded as “reduced; also recorded: decreased”. In experiment [2] (after relacorilant treatment), the “cortisol levels (in words)” value is given as “decreased” and the “dexamethasone suppression test (DST) (in words)” value is “normalized”. Also, the “ACTH levels (in words)” value in experiment [2] (at 6 months of relacorilant administration) is reported as “normalized”. The “plasma ACTH level” value in experiment [2] (since 6 months of relacorilant, undetectable before treatment) fell in the range of 15 to 18 pg/mL. In addition, the “pituitary macroadenoma size (in words)” value in the experiment on pituitary macroadenomas is “shrink”.

Values taken from US20240390341A1, “METHODS FOR TREATING ADRENAL GLAND TUMORS” (Corcept Therapeutics Incorporated, priority 2023, published 2024).
